*1 amine or outer side, *2 acyl side, *3 side chain or, on linkers, in order; H or OH if unused. Where a SMILES comes first, the peptide text is derived from it. [ ]: non-standard residue; d: D form. The star is where a group is joined. N(3-imidazol-1-ylpropyl)Gly = O=C(O)CNCCCn1ccnc1; NEtAsp = CCN([C@@H](CC(=O)[*:3])C(=O)[*:2])[*:1]; ACHC(1S,2S) = O=C([C@H]1CCCC[C@@H]1N[*:1])[*:2]; Gly(N-3-morpholinopropyl) = O=C(O)CNCCCN1CCOCC1; Phe(3,4-Cl2) = N[C@@H](Cc1ccc(Cl)c(Cl)c1)C(=O)O; Phe(3,4-F2) = N[C@@H](Cc1ccc(F)c(F)c1)C(=O)O; Oic = O=C(O)[C@@H]1C[C@@H]2CCCC[C@@H]2N1; Caffeoyl = O=C(/C=C/c1ccc(O)c(O)c1)*; X6 = O=C([C@@H]1CC(O)CN1[*:1])[*:2]; NMeCha = CN[C@@H](CC1CCCCC1)C(=O)O; NMeR = CN[C@@H](CCCNC(=N)N)C(=O)O; NMeF = CN[C@@H](Cc1ccccc1)C(=O)O; tBuAla = CC(C)(C)C[C@H](N)C(=O)O; NMeQ = CN[C@@H](CCC(N)=O)C(=O)O; Cha = N[C@@H](CC1CCCCC1)C(=O)O; NMeD = CN[C@@H](CC(=O)O)C(=O)O; NMeL = CN[C@@H](CC(C)C)C(=O)O; Phe(ol) = N[C@H](CO)Cc1ccccc1; NHPhenethyl = c1ccc(CCN*)cc1; Pip = O=C(O)[C@@H]1CCCCN1; X4 = NC[C@H](Cc1ccccc1)N*
Key:
[1] = Binding affinity to Escherichia coli sliding clamp assessed as dissociation constant by ITC analysis
Escherichia coli [2] = experiment: Binding affinity to Escherichia coli sliding clamp assessed as gibbs free energy change by ITC analysis
Escherichia coli [3] = experiment: Binding affinity to Escherichia coli sliding clamp assessed as association rate constant by ITC analysis
Escherichia coli [4] = experiment: Binding affinity to Escherichia coli sliding clamp assessed as dissociation rate constant by ITC analysis

deltaG (Escherichia coli [2]) | K (Escherichia coli [3]) | K (Escherichia coli [4]) | Compound | Kd [1]
-8.2 kcal/mol | 1.9 10^4/M/s | 1.8 10^-2/s | CC(=O)N[C@@H](CCC(N)=O)C(=O)N[C@@H](CC1CCCCC1)C(=O)N[C@@H](CC(=O)O)C(=O)N[C@@H](CC(C)C)C(=O)NCCc1ccccc1 (Ac-Q[Cha]DL-NHPhenethyl) | 922 nM
-8.27 kcal/mol | 1.2 10^4/M/s | 1.1 10^-2/s | CC(=O)N[C@@H](CCC(N)=O)C(=O)N[C@@H](CC1CCCCC1)C(=O)N[C@@H](CC(=O)O)C(=O)N[C@@H](CC(C)C)C(=O)N[C@H](CN)Cc1ccccc1 (Ac-Q[Cha]DL-X4) | 877 nM
-9 kcal/mol | 3.3 10^4/M/s | 9.1 10^-3/s | CC(=O)N[C@@H](CCC(N)=O)C(=O)N[C@@H](CC1CCCCC1)C(=O)N[C@@H](CC(=O)O)C(=O)N[C@@H](CC(C)C)C(=O)N[C@@H](Cc1ccccc1)C(N)=O (Ac-Q[Cha]DLF-NH2) | 268 nM
-8.9 kcal/mol | 3.2 10^4/M/s | 1.1 10^-2/s | CC(=O)N[C@@H](CCC(N)=O)C(=O)N[C@@H](CC1CCCCC1)C(=O)N[C@@H](CC(=O)O)C(=O)N[C@@H](CC(C)C)C(=O)NCC(=O)N[C@@H](Cc1ccccc1)C(=O)O (Ac-Q[Cha]DLGF-OH) | 313 nM
-8.4 kcal/mol | 2.6 10^4/M/s | 1.7 10^-2/s | CC(=O)N[C@@H](CCC(N)=O)C(=O)N[C@@H](CC1CCCCC1)C(=O)N[C@@H](CC(=O)O)C(=O)N[C@@H](CC(C)C)C(=O)NCC(=O)N[C@@H](CC(C)C)C(=O)O (Ac-Q[Cha]DLGL-OH) | 682 nM
-7.6 kcal/mol | 1.1 10^4/M/s | 3 10^-2/s | CC(=O)N[C@@H](CCC(N)=O)C(=O)N[C@@H](CC1CCCCC1)C(=O)N[C@@H](CC(=O)O)C(=O)N[C@@H](CC(C)C)C(=O)NCC(=O)N[C@@H](CC(C)(C)C)C(=O)O (Ac-Q[Cha]DLG[tBuAla]-OH) | 2690 nM
-9.7 kcal/mol | 6 10^4/M/s | 5 10^-3/s | CC(=O)N[C@@H](CCC(N)=O)C(=O)N[C@@H](CC1CCCCC1)C(=O)N[C@@H](CC(=O)O)C(=O)N[C@@H](CC(C)C)C(=O)N1CCC[C@H]1C(=O)N[C@@H](Cc1ccccc1)C(=O)O (Ac-Q[Cha]DLPF-OH) | 81 nM
-9.2 kcal/mol | 5.7 10^4/M/s | 1.1 10^-2/s | CC(=O)N[C@@H](CCC(N)=O)C(=O)N[C@@H](CC1CCCCC1)C(=O)N[C@@H](CC(=O)O)C(=O)N[C@@H](CC(C)C)C(=O)N1CCC[C@H]1C(=O)N[C@@H](CC(C)C)C(=O)O (Ac-Q[Cha]DLPL-OH) | 182 nM
-7.4 kcal/mol | 7.4 10^4/M/s | 2.9 10^-2/s | CC(=O)N[C@@H](CCC(N)=O)C(=O)N[C@@H](CC1CCCCC1)C(=O)N[C@@H](CC(=O)O)C(=O)N[C@@H](CC(C)C)C(=O)N[C@H]1CCCC[C@@H]1C(=O)N[C@@H](CC(C)C)C(=O)O (Ac-Q[Cha]DL[ACHC(1S,2S)]L-OH) | 4070 nM
-7.1 kcal/mol | 1 10^4/M/s | 5.4 10^-2/s | CC(=O)N[C@@H](CCC(N)=O)C(=O)N[C@@H](CC1CCCCC1)C(=O)N[C@@H](CC(=O)O)C(=O)N[C@@H](CC(C)C)C(=O)N(C)[C@@H](Cc1ccccc1)C(=O)O (Ac-Q[Cha]DL[NMeF]-OH) | > 1000 nM
-9.5 kcal/mol | 5.5 10^4/M/s | 7.1 10^-3/s | CC(=O)N[C@@H](CCC(N)=O)C(=O)N[C@@H](CC1CCCCC1)C(=O)N[C@@H](CC(=O)O)C(=O)N[C@@H](CC(C)C)C(=O)N1[C@H](C(=O)N[C@@H](Cc2ccccc2)C(=O)O)C[C@@H]2CCCC[C@@H]21 (Ac-Q[Cha]DL[Oic]F-OH) | 120 nM
-9.9 kcal/mol | 7.1 10^4/M/s | 3.9 10^-3/s | CC(=O)N[C@@H](CCC(N)=O)C(=O)N[C@@H](CC1CCCCC1)C(=O)N[C@@H](CC(=O)O)C(=O)N[C@@H](CC(C)C)C(=O)N1[C@H](C(=O)N[C@@H](CC(C)C)C(=O)O)C[C@@H]2CCCC[C@@H]21 (Ac-Q[Cha]DL[Oic]L-OH) | 57 nM
-8.4 kcal/mol | 2.6 10^4/M/s | 1.9 10^-2/s | CC(=O)N[C@@H](CCC(N)=O)C(=O)N[C@@H](CC1CCCCC1)C(=O)N[C@@H](CC(=O)O)C(=O)N[C@@H](CC(C)C)C(=O)N[C@H](CO)Cc1ccccc1 (Ac-Q[Cha]DL[Phe(ol)]) | 751 nM
-9 kcal/mol | 4.3 10^4/M/s | 1 10^-2/s | CC(=O)N[C@@H](CCC(N)=O)C(=O)N[C@@H](CC1CCCCC1)C(=O)N[C@@H](CC(=O)O)C(=O)N[C@@H](CC(C)C)C(=O)N1CCCC[C@H]1C(=O)N[C@@H](CC(C)C)C(=O)O (Ac-Q[Cha]DL[Pip]L-OH) | 243 nM
-8.8 kcal/mol | 4.4 10^4/M/s | 1.7 10^-2/s | CC(=O)N[C@@H](CCC(N)=O)C(=O)N[C@@H](CC1CCCCC1)C(=O)N[C@@H](CC(=O)O)C(=O)N[C@@H](CC(C)C)C(=O)N1CC(O)C[C@H]1C(=O)N[C@@H](CC(C)C)C(=O)O (stereo partly drawn) (Ac-Q[Cha]DL[X6]L-OH) | 369 nM
-5.2 kcal/mol |  |  | CC(=O)N[C@@H](CCC(N)=O)C(=O)N[C@@H](CC1CCCCC1)C(=O)N[C@@H](CC(=O)O)C(=O)N(C)[C@@H](CC(C)C)C(=O)N[C@@H](Cc1ccccc1)C(=O)O (Ac-Q[Cha]D[NMeL]F-OH) | > 1000 nM

deltaG (Escherichia coli [2]) | K (Escherichia coli [3]) | K (Escherichia coli [4]) | Compound | Kd [1]
-8.6 kcal/mol | 2.9 10^4/M/s | 1.3 10^-2/s | CCN(C(=O)[C@H](CC1CCCCC1)NC(=O)[C@H](CCC(N)=O)NC(C)=O)[C@@H](CC(=O)O)C(=O)N[C@@H](CC(C)C)C(=O)N[C@@H](Cc1ccccc1)C(=O)O (Ac-Q[Cha][NEtAsp]LF-OH) | 523 nM
-9.5 kcal/mol | 2.1 10^4/M/s | 1.9 10^-2/s | CC(=O)N[C@@H](CCC(N)=O)C(=O)N[C@@H](CC1CCCCC1)C(=O)N(C)[C@@H](CC(=O)O)C(=O)N[C@@H](CC(C)C)C(=O)N[C@@H](Cc1ccccc1)C(=O)O (Ac-Q[Cha][NMeD]LF-OH) | 114 nM
-9 kcal/mol | 1 10^5/M/s | 2.3 10^-2/s | CC(=O)N[C@@H](CCC(N)=O)C(=O)N[C@@H](CC1CCCCC1)C(=O)N(C)[C@@H](CC(=O)O)C(=O)N[C@@H](CC(C)C)C(=O)N1CCC[C@H]1C(=O)N[C@@H](CC(C)C)C(=O)O (Ac-Q[Cha][NMeD]LPL-OH) | 263 nM
-9.1 kcal/mol | 3.8 10^4/M/s | 7.9 10^-3/s | CC(=O)N[C@@H](CCC(N)=O)C(=O)N[C@@H](CC1CCCCC1)C(=O)N(C)[C@@H](CC(=O)O)C(=O)N[C@@H](CC(C)C)C(=O)N1CCC[C@H]1C(=O)N[C@@H](Cc1ccc(Cl)c(Cl)c1)C(=O)O (Ac-Q[Cha][NMeD]LP[Phe(3,4-Cl2)]-OH) | 231 nM
-10.1 kcal/mol | 2.7 10^5/M/s | 1 10^-2/s | CC(=O)N[C@@H](CCC(N)=O)C(=O)N[C@@H](CC1CCCCC1)C(=O)N(C)[C@@H](CC(=O)O)C(=O)N[C@@H](CC(C)C)C(=O)N[C@@H](Cc1ccc(Cl)c(Cl)c1)C(=O)O (Ac-Q[Cha][NMeD]L[Phe(3,4-Cl2)]-OH) | 41 nM
-9.3 kcal/mol | 5.6 10^4/M/s | 8.4 10^-3/s | CC(=O)N[C@@H](CCC(N)=O)C(=O)N[C@@H](CC1CCCCC1)C(=O)N(C)[C@@H](CC(=O)O)C(=O)N[C@@H](CC(C)C)C(=O)N[C@@H](Cc1ccc(F)c(F)c1)C(=O)O (Ac-Q[Cha][NMeD]L[Phe(3,4-F2)]-OH) | 148 nM
-6 kcal/mol |  |  | CC(=O)N[C@@H](CCC(N)=O)C(=O)N(C)[C@@H](CC1CCCCC1)C(=O)N[C@@H](CC(=O)O)C(=O)N[C@@H](CC(C)C)C(=O)N[C@@H](Cc1ccccc1)C(=O)O (Ac-Q[NMeCha]DLF-OH) | > 1000 nM
-8.6 kcal/mol | 3.7 10^4/M/s | 1.9 10^-2/s | CC(=O)N[C@@H](CCCNC(=N)N)C(=O)N[C@@H](CCC(N)=O)C(=O)N[C@@H](CC1CCCCC1)C(=O)N[C@@H](CC(=O)O)C(=O)N[C@@H](CC(C)C)C(=O)N[C@@H](Cc1ccccc1)C(=O)O (Ac-RQ[Cha]DLF-OH) | 498 nM
-8.9 kcal/mol | 7.6 10^4/M/s | 2.1 10^-2/s | CC(=O)N[C@@H](CCCNC(=N)N)C(=O)N[C@@H](CCC(N)=O)C(=O)N[C@@H](CC1CCCCC1)C(=O)N(C)[C@@H](CC(=O)O)C(=O)N[C@@H](CC(C)C)C(=O)N[C@@H](Cc1ccc(Cl)c(Cl)c1)C(=O)O (Ac-RQ[Cha][NMeD]L[Phe(3,4-Cl2)]-OH) | 278 nM
-7.7 kcal/mol | 2.1 10^4/M/s | 4.6 10^-2/s | CC(=O)N(C)[C@@H](CCC(N)=O)C(=O)N[C@@H](CC1CCCCC1)C(=O)N[C@@H](CC(=O)O)C(=O)N[C@@H](CC(C)C)C(=O)N[C@@H](Cc1ccccc1)C(=O)O (Ac-[NMeQ][Cha]DLF-OH) | > 1000 nM
-7.7 kcal/mol | 2.1 10^4/M/s | 2.9 10^-2/s | CC(=O)N(C)[C@@H](CCCNC(=N)N)C(=O)N[C@@H](CCC(N)=O)C(=O)N[C@@H](CC1CCCCC1)C(=O)N[C@@H](CC(=O)O)C(=O)N[C@@H](CC(C)C)C(=O)N[C@@H](Cc1ccccc1)C(=O)O (Ac-[NMeR]Q[Cha]DLF-OH) | 2130 nM
-9.6 kcal/mol | 1.1 10^5/M/s | 9.4 10^-3/s | CC(=O)N(C)[C@@H](CCCNC(=N)N)C(=O)N[C@@H](CCC(N)=O)C(=O)N[C@@H](CC1CCCCC1)C(=O)N(C)[C@@H](CC(=O)O)C(=O)N[C@@H](CC(C)C)C(=O)N[C@@H](Cc1ccc(Cl)c(Cl)c1)C(=O)O (Ac-[NMeR]Q[Cha][NMeD]L[Phe(3,4-Cl2)]-OH) | 92 nM
-9.5 kcal/mol | 4.6 10^4/M/s | 4.7 10^-3/s | CC(C)C[C@H](NC(=O)[C@H](CC(=O)O)NC(=O)[C@H](CC1CCCCC1)NC(=O)[C@H](CCC(N)=O)NC(=O)/C=C/c1ccc(O)c(O)c1)C(=O)N[C@@H](Cc1ccccc1)C(=O)O (Caffeoyl-Q[Cha]DLF-OH) | 99 nM
-8.3 kcal/mol | 1.8 10^4/M/s | 1.4 10^-2/s | CC(C)C[C@H](NC(=O)[C@H](CC(=O)O)NC(=O)[C@H](CC1CCCCC1)NC(=O)[C@H](CCC(N)=O)NC(=O)CNCCCN1CCOCC1)C(=O)N[C@@H](Cc1ccccc1)C(=O)O (H-[Gly(N-3-morpholinopropyl)]Q[Cha]DLF-OH) | 796 nM
-8.9 kcal/mol | 4.2 10^4/M/s | 1.1 10^-2/s | CC(C)C[C@H](NC(=O)[C@H](CC(=O)O)NC(=O)[C@H](CC1CCCCC1)NC(=O)[C@H](CCC(N)=O)NC(=O)CNCCCn1ccnc1)C(=O)N[C@@H](Cc1ccccc1)C(=O)O (H-[N(3-imidazol-1-ylpropyl)Gly]Q[Cha]DLF-OH) | 312 nM

From ChEMBL document CHEMBL5053545, “Iterative Structure-Based Optimization of Short Peptides Targeting the Bacterial Sliding Clamp” (J Med Chem, 2021)
